Measurements as given in patent US12076307B2, “Compositions for prevention or treatment of acute radiation syndrome and other radiation exposure” (priority 2017, dated 2024).

What was measured:
[1] = In vitro plasma stability, rat plasma; format: in vitro ADME; conditions: Rats; 1 μM; 37° C.; n=3
Description: To assess the stability of EC-18 in plasma, the test material, or the standard reference material (test concentration 1 μM) was mixed with rat and human plasma and allowed to react for 1 hr at 37° C. Then, the residual EC-18 concentration was measured by LC-MS/MS. As standard reference materials, albendazole (a drug with high plasma stability) and vinpocetine (a drug with low plasma stability) were tested in parallel. When allowed to react with rat and human plasma for 1 hr, the residual EC-18 concentration in both rat and human plasma was >99% of the initial dose.

[2] = Plasma protein binding by rapid equilibrium dialysis, rat; conditions: Rats, 4 hrs RED, n=3
Description: The plasma protein binding ability of EC-18 was tested by rapid equilibrium dialysis (RED). The chamber separated by a dialysis tubing membrane (cut-off: 8 kDa) was filled on one side with rat or human plasma mixed with phosphate buffer and on the other side with rat or human plasma mixed with the test or standard reference material (test concentration: 1 μM).

[3] = Whole blood and lymphatic radioactivity in rats after single oral [14C]EC-18 100 mg/kg; format: in vivo, rat
[4] = test system: Balb/c mice, TBI 6.5 or 8 Gy; assay: Radiation-induced skin damage (erythema) in lethal ARS mouse models; format: in vivo
Description: In order to evaluate effects of PLAG on recovery skin damage of animal models exposed to radiation, the following test groups were constructed as shown in Table 4 and results are shown in FIGS. 13-15. As discussed in Examples above, the first group of untreate group (negative control) of mice after radiation was compared to the second group of treated group of mice with PLAG after radiation.
In addition to the ARS survival studies that have been conducted in mice, a series of studies that probe secondary measures of efficacy in radiation-induced skin damage in the Balb/c mice (n=10/sex/group). […] The development of skin damage (erythema and reddening) on the tails were evaluated.
In the following study, Balb/c mice (n=5 females/group) were exposed with a supra-lethal radiation dosage of 8 Gy and treated with EC-18 daily at 250 mg/kg/day for 17 days.
The secondary measures of EC-18's efficacy on the supra-LD (8 Gy) of radiation-induced skin damage were assessed. Female BALB/c mice (9 weeks of age) were randomly divided into 2 cohorts and daily administered in-life with the vehicle control (PBS) and EC-18 at 250 mg/kg (n=5/each cohort).

EGFR = assay: Western blot of EGFR activity, comparison to G-CSF; format: cell-based; conditions: cells stimulated with neutrophil or G-CSF-activated neutrophils
Description: The effects of EC-18 in comparison to G-CSF to cells after γ-radiation were measured by western blot (FIG. 25). The experiment can i) show correlation between EGFR activity and the abnormal growth and metastasis induction of breast cancer cells in the TAN environment and ii) confirm inhibitory effect mechanism by PLAG treatment in this condition. In fact, it was confirmed that EGFR activity was increased in the groups stimulated with neutrophil or G-CSF-activated neutrophils, however, the activity of EGFR (Phosphorylation of EGFR) was decreased in the group treated with PLAG. FIG. 26 can show effects of PLAG in comparison to G-CSF.

[5] = test system: Balb/c mice, 1 Gy gamma radiation + 5-Fluorouracil + tongue scratch; assay: Radiation-induced oral mucositis ARS model: survival, mucositis, blood neutrophils; format: in vivo, mouse; conditions: PLAG 250 mg/kg/day oral
Description: In order to further confirm the effect of PLAG on the acute radiation syndrome, an animal model of radiation-induced oral mucositis was prepared and tested as an acute radiation syndrome animal model with severer conditions than those in Example 1 above. First, Balb/c mice (8-week-old female) were purchased from Koatech (Republic of Korea) and maintained in a specific pathogen-free (SPF) environment to establish a radiation-induced oral mucositis model. In this example, first group of oral mucositis induced group (negative control) was compared to the second group where PLAG was orally administered to animals with induced oral mucositis.
Specifically, mice were exposed to 1 Gy whole body gamma radiation and scars of 0.2 cm on the mice tongue were scratched at 0, 7, 10 and 16 days with the same force and depth using an 18 gauge needle. On day 2 post-irradiation, 5-Fluorouracil (50 mg/kg/day) was intraperitoneally administered and PLAG was administered orally at 250 mg/kg/day for 18 days (Table 2).
Oral mucositis level was determined by counting the ulcer formation and edema of the tongue and the incidence of wound atrophy, and calculating the score of oral mucositis by a total of 5 blinded observers. On the 7th and 10th day, the blood of the experimental groups was collected and the number of neutrophils in the blood was measured by measuring the Complete Blood Count (CBC) using a Mindray BC-5300 auto hematology analyzer (Shenzhen Mindray Bio-medical Electronics, China).

[6] = test system: S. typhi-murium (TA98, TA100, TA1535, TA1537), E. coli (WP2uvrA(pKM101)); format: cell-based; conditions: in vitro; 48 hr; 312.5-5000 μg/plate
Description: (§1) Various toxicology studies have been performed. All studies were GLP-compliant unless otherwise noted.

Beagle dog = assay: Repeated dose toxicity, Beagle dog; format: in vivo; conditions: Oral
Description: as §1

[7] = Repeated dose toxicity, Beagle dog; format: in vivo; conditions: Beagle, dog, in vivo, Oral
Description: as §1

Q: Which results are given for `CCCCC/C=C\C/C=C\CCCCCCCC(=O)OC(COC(C)=O)COC(=O)CCCCCCCCCCCCCCC` (stereo not drawn) [EC-18, 1-palmitoyl-2-linoleoyl-3-acetylglycerol]?
A: Residual Concentration Relative to the Initial Dose After Reaction for 1 hr in Plasma [1]: >99%; Plasma Protein Binding Rate ([2]; 1 μM): 98.8 ± 0.5%; fraction unbound at 4 hrs, 1 μM ([2]; rat, plasma, Plasma Protein Binding Rate): < 0.01; Cmax of radioactivity at 24 hrs (so in the source) ([3]; lymphatic fluid): 48%; Cmax of radioactivity at 24 hrs (so in the source) ([3]; whole blood): 34%; skin damage (erythema and reddening) on the tails vs PBS ([4]; 6.5 Gy, 250 mg/kg/day 30 days): substantial reduction of tail erythema; skin damage (necrosis, ulceration, blistering, hair loss) on tails and feet vs PBS ([4]; 8 Gy, 250 mg/kg/day 17 days, n=5 females): extensively reduced; mice with any skin damage on the tails ([4]; 8 Gy, 250 mg/kg, n=5, day 10): none of the five; mice with slight hemorrhagic telangiectasia on the front right feet ([4]; 8 Gy, 250 mg/kg, n=5, day 10): Only one individual; activity of EGFR (Phosphorylation of EGFR) (EGFR): decreased; oral mucositis score [5]: significantly decreased; visually confirmed oral mucositis levels vs non-PLAG-treated group [5]: significantly reduced; neutrophil number in blood ([5]; days 7 and 10): significantly increased; survival rate ([5]; day 18, n=7): 85%; induction of reverse mutation [6]: No potential of EC-18; mortality (Beagle dog; 2 weeks, 0, 500, 1000, 2000 mg/kg): No dead animals; findings (Beagle dog; 2 weeks, males and females in 1000 and 2000 mg/kg dose groups): Grayish stool observed; mortality (Beagle dog; 4 weeks (2-week recovery)): No dead animals; findings (Beagle dog; 4 weeks (2-week recovery), drug administration groups): Grayish stool observed; findings (soft stool and grayish stool; early diarrhea; no toxicological significance) (Beagle dog; 9 months (4-week recovery)): Dose-dependent soft; mortality (Beagle dog; 9 months (4-week recovery)): No dead animals; findings (grayish stool observed) (Beagle dog; 13 weeks (4-week recovery)): Dose-dependent grayish; mortality (Beagle dog; 13 weeks (4-week recovery)): No dead animals; NOAEL at 2 weeks ([7]; 2 weeks): > 2000 mg/kg/day; NOAEL at 4 weeks ([7]; 4 weeks (2-week recovery)): > 2000 mg/kg/day; NOAEL at 9 months ([7]; 9 months (4-week recovery)): 2000 mg/kg/day; NOAEL at 13 weeks ([7]; 13 weeks (4-week recovery)): > 2000 mg/kg/day
